Experimental data from US6525059B1, “Substituted pyrazoles as p38 kinase inhibitors” (G. D. Searle & Company, priority 1998, dated 2003).
Where two headings read alike, the source gives them in different places. Blank lines part the entries; values can stand above or below the compound they belong to.

Legend:
human TNF = experiment: TNF inhibition: human whole blood assay; format: cell-based; conditions: for IC50: Homo sapiens; for inhibition at 5 µM: read-out: Human Whole Blood % Inhib @ conc.
Method: Human peripheral blood is obtained in heparinized tubes. A 190 μL aliquot of blood is placed in each well of a 96 well u-bottom plate. […] After one hour of incubation at 37° C., […] of lipopolysaccharide (Salmonella typhosa, Sigma) in phosphate buffered saline is added resulting in a final concentration of […]. After four to five hours of incubation at 37° C., the supernatants are harvested and assayed at 1:10 or 1:20 dilutions for human TNF using ELISA.

TNF-α = experiment: Rat assay: LPS-challenged rats, serum TNF-α by ELISA; format: in vivo; conditions: Rattus norvegicus, po; for inhibition in vivo at 3 mg/kg: read-out: Rat LPS Assay % Inhibition; for inhibition in vivo at 10 mg/kg: Table 9, dose 10 mg/kg; for inhibition in vivo at 5 mg/kg: read-out: Rat LPS Model % Inhibition @ dose @ predose time
Method: The efficacy of the novel compounds in blocking the production of TNF also was evaluated using a model based on rats challenged with LPS. Male Harlen Lewis rats [Sprague Dawley Co.] were used in this model. Each rat weighed approximately 300 g and was fasted overnight prior to testing. Compounds administration was typically by oral gavage (although intraperitoneal, subcutaneous and intravenous administration were also used in a few instances) 1 to 24 hours prior to the LPS challenge. Rats were administered 30 μg/kg LPS [salmonella typhosa, Sigma Co.] intravenously via the tail vein. Blood was collected via heart puncture 1 hour after the LPS challenge. Serum samples were stored at −20° C. until quantitative analysis of TNF-α by Enzyme Linked-Immuno-Sorbent Assay (“ELISA”) [Biosource]. Additional details of the assay are set forth in Perretti, M., et al., Br. J. Pharmacol. (1993), 110, 868-874, which is incorporated by reference in this application.
In vivo assessment of the ability of the compounds to inhibit LPS-stimulated TNF release in the rat is shown in the column identified as:
wherein in the dose is milligram per kilogram (mpk) administered by oral gavage and the predose time indicates the number of hours before LPS challenge when the compound is administered.

[1] = biological target: T1, human GST-p38 kinase alpha (Homo sapiens, UniProt Q16539); experiment: p38 kinase in vitro assay, second format, phosphorylation of EGFRP with 33P-ATP; format: biochemical; conditions: read-out: p38α Kinase Assay IC50
T1 construct: The coding region of the human p38a cDNA was obtained by PCR-amplification from RNA isolated from the human monocyte cell line THP.1; made in house; host or cells: E. coli DH10B
Method: A second assay format was also employed that is based on p38 kinase alpha induced phosphorylation of EGFRP (epidermal growth factor receptor peptide, a 21 mer) in the presence of ^33P-ATP. Compounds were tested in 10 fold serial dilutions over the range of 100 μM to 0.001 μM in 10% DMSO. Each concentration of inhibitor was tested in triplicate. Compounds were evaluated in 50 μl reaction volumes in the presence of 25 mM Hepes pH 7.5, 10 mM magnesium acetate, 4% glycerol, 0.4% bovine serum albumin, 0.4 mM DTT, 50 μM unlabeled ATP, 25 μg EGFRP (200 μM), and 0.05 uCi gamma ^33P-ATP. Reactions were initiated by addition of 0.09 μg of activated, purified human GST-p38 kinase alpha. Activation was carried out using GST-MKK6 (5:1, p38: MKK6) for one hour at 30° C. in the presence of 50 μM ATP. Following incubation for 60 minutes at room temperature, the reaction was stopped by addition of 150 μl of AG 1×8 resin in 900 mM sodium formate buffer, pH 3.0 (1 volume resin to 2 volumes buffer). The mixture was mixed three times with pipetting and the resin was allowed to settle. A total of 50 μl of clarified solution head volume was transferred from the reaction wells to Microlite-2 plates. 150 μl of Microscint 40 was then added to each well of the Microlite plate, and the plate was sealed, mixed, and counted.

human p38 kinase alpha = biological target: T2, human p38 kinase alpha (Homo sapiens, UniProt Q16539); experiment: p38 kinase in vitro assay, phosphorylation of biotinylated PHAS-I with gamma 32P-ATP; format: biochemical; conditions: read-out: P38 alpha kinase IC50
T2 construct: The coding region of the human p38a cDNA was obtained by PCR-amplification from RNA isolated from the human monocyte cell line THP.1; GST (N); made in house; host or cells: E. coli DH10B
Outline: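 Radiometric filter-capture read-out: streptavidin plates trap biotin-PHAS-I labelled by activated (MKK6) human p38α from γ-32P-ATP. Buffer 25 mM HEPES pH 7.5, 10 mM magnesium acetate, 50 μM cold ATP; reactions 1 h or overnight at 30 °C; inhibitors 10-fold dilutions 100 to 0.001 μM, triplicates, 1% DMSO.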

[2] = Table 8, human whole blood, LPS, read-out: TNF Inhibition-Human Whole Blood Assay
[3] = Table 9, human whole blood, LPS, read-out: TNF Inhibition-Human Whole Blood Assay
[4] = TNF production, LPS-stimulated human whole blood
[5] = TNF production, LPS-stimulated human whole blood, read-out: Human Whole Blood IC50
[6] = 5 mpk oral gavage, 4 h before LPS challenge

T1 sequence (Q16539 whole entry): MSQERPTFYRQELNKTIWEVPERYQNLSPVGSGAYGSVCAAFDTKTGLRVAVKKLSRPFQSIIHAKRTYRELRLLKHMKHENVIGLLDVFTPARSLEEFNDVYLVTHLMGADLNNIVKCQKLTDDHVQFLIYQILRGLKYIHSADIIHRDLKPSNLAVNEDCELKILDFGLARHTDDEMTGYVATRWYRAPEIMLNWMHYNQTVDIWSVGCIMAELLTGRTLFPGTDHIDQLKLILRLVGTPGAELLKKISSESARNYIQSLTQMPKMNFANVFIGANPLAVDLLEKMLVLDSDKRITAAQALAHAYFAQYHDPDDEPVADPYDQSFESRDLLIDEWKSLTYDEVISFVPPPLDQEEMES
T2 sequence (Q16539 whole entry): as above

SMILES: O=C(O)CCC(=O)N1CCN(c2n[nH]c(-c3ccc(Cl)cc3)c2-c2ccncc2)CC1 [A-321 (dihydrate), 4-[5-(4-chlorophenyl)-4-(4-pyridinyl)-1H-pyrazol-3-yl]-γ-oxo-1-piperazinebutanoic acid, dihydrate]
IC50 (human TNF; read-out: TNF Inhibition-Human Whole Blood Assay): > 25 µM

SMILES: COC(=O)N1CCN(c2[nH]nc(-c3ccc(Cl)cc3)c2-c2ccncc2)CC1 [Example A-319, methyl 4-[5-(4-chlorophenyl)-4-(4-pyridinyl)-1H-pyrazol-3-yl]-1-piperazinecarboxylate, monohydrate]
IC50 (human TNF; [2]): > 25 µM | inhibition in vivo at 3 mg/kg (TNF-α; Table 8, dose 3.0 mg/kg): 62%

SMILES: CC1CN(c2[nH]nc(-c3ccc(Cl)cc3)c2-c2ccncc2)CC(C)N1 (stereo not shown) [Example A-342, 1-[5-(4-chlorophenyl)-4-(4-pyridinyl)-1H-pyrazol-3-yl]-3,5-dimethylpiperazine]
IC50 (human TNF; [2]): 0.31 µM | inhibition in vivo at 20 mg/kg (TNF-α; Table 8, dose 20.0 mg/kg): 98%

SMILES: CC1CN(c2[nH]nc(-c3ccc(Cl)cc3)c2-c2ccncc2)CCN1 (stereo not shown) [Example A-343, 1-[5-(4-chlorophenyl)-4-(4-pyridinyl)-1H-pyrazol-3-yl]-3-methylpiperazine]
inhibition in vivo at 20 mg/kg (TNF-α; Table 8, dose 20.0 mg/kg): 96% | IC50 ([1]; Table 8, 10% DMSO): 16 nM

SMILES: CCN1CCC(Nc2cc(-c3c[nH]nc3-c3ccc(F)cc3)ccn2)CC1 [Example A-352, N-(1-ethyl-4-piperidinyl)-4-[3-(4-fluorophenyl)-1H-pyrazol-4-yl]-2-pyridinamine]
IC50 (human TNF; [3]): 9.8 µM | inhibition in vivo at 20 mg/kg (TNF-α; Table 9, dose 20 mg/kg): 36%

SMILES: OC[C@@H](Cc1ccccc1)Nc1cc(-c2c[nH]nc2-c2ccc(F)cc2)ccn1 [Example A-361, (βR)-β-[[4-[3-(4-fluorophenyl)-1H-pyrazol-4-yl]-2-pyridinyl]amino]benzene propanol]
IC50 (human TNF; [3]): 1 µM | inhibition in vivo at 20 mg/kg (TNF-α; Table 9, dose 20 mg/kg): 9%

SMILES: Fc1ccc(-c2n[nH]cc2-c2ccnc(NCCN3CCCCC3)c2)cc1 [Example A-375, 4-[3-(4-fluorophenyl)-1H-pyrazol-4-yl]-N-[2-(1-piperidinyl)ethyl]-2-pyridinamine]
inhibition in vivo at 20 mg/kg (TNF-α; Table 9, dose 20 mg/kg): 43% | IC50 ([1]; Table 9, 10% DMSO): 2300 nM

SMILES: O=C1CCN(c2n[nH]c(-c3ccc(F)cc3)c2-c2ccncc2)CC1 [Example A-378, 1-[5-(4-fluorophenyl)-4-(4-pyridinyl)-1H-pyrazol-3-yl]-4-piperidinone]
inhibition in vivo at 10 mg/kg (TNF-α): 73% | IC50 ([1]; Table 9, 10% DMSO): 6200 nM

SMILES: OC1CCN(c2[nH]nc(-c3ccc(F)cc3)c2-c2ccncc2)CC1 [Example A-379, 1-[5-(4-fluorophenyl)-4-(4-pyridinyl)-1H-pyrazol-3-yl]-4-piperidinol]
inhibition in vivo at 10 mg/kg (TNF-α): 61% | IC50 ([1]; Table 9, 10% DMSO): 190 nM

SMILES: Fc1ccc(-c2n[nH]c(N3CCC4(CC3)OCCO4)c2-c2ccncc2)cc1 [Example A-380, 8-[5-(4-fluorophenyl)-4-(4-pyridinyl)-1H-pyrazol-3-yl]-1,4-dioxa-8-azaspiro[4.5]decane]
inhibition in vivo at 3 mg/kg (TNF-α; Table 9, dose 3 mg/kg): 33% | inhibition in vivo at 10 mg/kg (TNF-α): 62% | inhibition in vivo at 30 mg/kg (TNF-α; Table 9, dose 30 mg/kg): 85% | IC50 ([1]; Table 9, 10% DMSO): 850 nM

SMILES: O[C@H]1CC[C@H](Nc2cc(-c3c[nH]nc3-c3ccc(F)cc3)ccn2)CC1 [Example A-386, trans-4-[[4-[3-(4-fluorophenyl)-1-H-pyrazol-4-yl]-2-pyridinyl]amino]cyclohexanol]
IC50 (human TNF; [3]): 0.16 µM | inhibition in vivo at 20 mg/kg (TNF-α; Table 9, dose 20 mg/kg): 91%

SMILES: O=C1CCC(Nc2cc(-c3c[nH]nc3-c3ccc(F)cc3)ccn2)CC1 [Example A-387, 4-[[4-[3-(4-fluorophenyl)-1H-pyrazol-4-yl]-2-pyridinyl]amino]cyclohexanone]
inhibition in vivo at 20 mg/kg (TNF-α; Table 9, dose 20 mg/kg): 83% | IC50 ([1]; Table 9, 10% DMSO): 5 nM

IC50 (human p38 kinase alpha): 8 nM
SMILES: C=CCN1CCC(c2[nH]nc(-c3ccc(Cl)cc3)c2-c2ccncc2)CC1 [Example C-80]
inhibition at 5 µM (human TNF; [4]): 51%

IC50 (human p38 kinase alpha): 37 nM
SMILES: C#CCN1CCC(c2[nH]nc(-c3ccc(Cl)cc3)c2-c2ccncc2)CC1 [Example C-81]
inhibition at 5 µM (human TNF; [4]): 40%

IC50 (human TNF; [5]): 7.31 µM | IC50 (human p38 kinase alpha): 150 nM
SMILES: Clc1ccc(-c2n[nH]c(C3CCN(Cc4nccs4)CC3)c2-c2ccncc2)cc1 [Example C-82]

IC50 (human TNF; [5]): > 25 µM | IC50 (human p38 kinase alpha): 570 nM
SMILES: CC(C)N1CCC(c2[nH]nc(-c3ccc(C(F)(F)F)cc3)c2-c2ccncc2)CC1 [Example C-85]

IC50 (human TNF; [5]): 0.34 µM | IC50 (human p38 kinase alpha): 27 nM
SMILES: CN1CCC(c2[nH]nc(-c3cccc(C(F)(F)F)c3)c2-c2ccncc2)CC1 [Example C-87]

IC50 (human TNF; [5]): 0.48 µM | IC50 (human p38 kinase alpha): 37 nM
SMILES: Fc1ccc(-c2n[nH]c(C3CCCNC3)c2-c2ccncc2)cc1 (stereo not shown) [Example C-90, 5-(3-piperidyl)-4-(4-pyridyl)-3-(4-fluorophenyl)pyrazole]

SMILES: CC(=O)N[C@H]1CC[C@@H](c2[nH]nc(-c3ccc(Cl)cc3)c2-c2ccncc2)CC1 [Example C-95, 5- cis-[4-N-(ACETYL)AMINOCYCLOHEXYL]-4-(4-PYRIDYL)-3-(4-CHLOROPHENYL)PYRAZOLE]
IC50 (human TNF; [5]): 3.91 µM | inhibition in vivo at 5 mg/kg (TNF-α; [6]): 32%

SMILES: COCC(=O)NC1CCC(c2[nH]nc(-c3ccc(Cl)cc3)c2-c2ccncc2)CC1 (stereo not drawn) [Example C-96, 5-cis-[4-N-(METHOXYACETYL)AMINOCYCLOHEXYL]-4-(4-PYRIDYL)-3-(4-CHLOROPHENYL)PYRAZOLE]
IC50 (human TNF; [5]): 2.1 µM | inhibition in vivo at 5 mg/kg (TNF-α; [6]): 38%

SMILES: N[C@H]1CC[C@@H](c2[nH]nc(-c3ccc(C(F)(F)F)cc3)c2-c2ccncc2)CC1 [Example C-101, 5-cis-(4-AMINOCYCLOHEXYL)-4-(4-PYRIDYL)-3-[4-(TRIFLUOROMETHYL)PHENYL]PYRAZOLE]
IC50 (human TNF; [5]): 3.71 µM | inhibition in vivo at 5 mg/kg (TNF-α; [6]): 52%

SMILES: CN(C)[C@H]1CC[C@@H](c2[nH]nc(-c3ccc(C(F)(F)F)cc3)c2-c2ccncc2)CC1 [Example C-102, 5-cis-(4-N,N-DIMETHYLAMINOCYCLOHEXYL)-4-(4-PYRIDYL)-3-[4-(TRIFLUOROMETHYL)PHENYL]PYRAZOLE]
IC50 (human TNF; [5]): 7.56 µM | inhibition in vivo at 5 mg/kg (TNF-α; [6]): 72%

SMILES: CC(C)(N)C(=O)NCc1[nH]nc(-c2ccc(Cl)cc2)c1-c1ccncc1 [Example C-121]
IC50 (human TNF; read-out: Human Whole Blood IC50, μM): 15.3 µM | inhibition in vivo at 5 mg/kg (TNF-α): 39%

IC50 (human TNF; [5]): > 25 µM | IC50 (human p38 kinase alpha): 670 nM
SMILES: Fc1ccc(-c2n[nH]c([C@@H]3CCCN3)c2-c2ccncc2)cc1 [Example C-123, (S)-5-(2-PYROLIDINYL)-74-(4-PYRIDYL)-3-(4-FLUOROPHENYL)PYRAZOLE]

IC50 (human TNF; [5]): > 25 µM | IC50 (human p38 kinase alpha): 7220 nM
SMILES: Fc1ccc(-c2n[nH]c([C@H]3CCCN3)c2-c2ccncc2)cc1 [Example C-125, (R)-5-(2-PYROLIDINYL)-4-(4-PYRIDYL)-3-(4-FLUOROPHENYL)PYRAZOLE]

SMILES: Fc1ccc(-c2n[nH]c([C@@H]3CCCNC3)c2-c2ccncc2)cc1 [Example C-127]
IC50 (human TNF; [5]): 0.27 µM | IC50 (human p38 kinase alpha): 38 nM

IC50 (human p38 kinase alpha): 86 nM
SMILES: OCCCCc1[nH]nc(-c2ccc(F)cc2)c1-c1ccncc1 [Example C-132, 5-[4-(1-HYDROXY)BUTYL]-4-(4-PYRIDYL)-3-(4-FLUOROPHENYL)PYRAZOLE]
inhibition at 5 µM (human TNF; [4]): 44%
